One assay deals with NSD2 [1-1365] (Homo sapiens (Human), UniProt O96028). The experiment in a line: LC-MS/MS-based NSD2 enzymatic assay (SAH production). Format: biochemical. The following applies: NSD2 biochemical activity, class symbols; read-out: NSD2 IC50. In a few lines: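 SAH formed was measured by LC-MS/MS using d4-SAH as internal standard and an SAH calibration curve. Compounds were preincubated 20 min with NSD2 [1-1365] and SAM; mouse-liver nucleosome then started a 90 min room-temperature reaction (8 nM enzyme, 1 μM SAM, 400 nM nucleosome final, pH 8.0), stopped with TFA.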
NSD2 [1-1365], sequence (O96028 whole entry): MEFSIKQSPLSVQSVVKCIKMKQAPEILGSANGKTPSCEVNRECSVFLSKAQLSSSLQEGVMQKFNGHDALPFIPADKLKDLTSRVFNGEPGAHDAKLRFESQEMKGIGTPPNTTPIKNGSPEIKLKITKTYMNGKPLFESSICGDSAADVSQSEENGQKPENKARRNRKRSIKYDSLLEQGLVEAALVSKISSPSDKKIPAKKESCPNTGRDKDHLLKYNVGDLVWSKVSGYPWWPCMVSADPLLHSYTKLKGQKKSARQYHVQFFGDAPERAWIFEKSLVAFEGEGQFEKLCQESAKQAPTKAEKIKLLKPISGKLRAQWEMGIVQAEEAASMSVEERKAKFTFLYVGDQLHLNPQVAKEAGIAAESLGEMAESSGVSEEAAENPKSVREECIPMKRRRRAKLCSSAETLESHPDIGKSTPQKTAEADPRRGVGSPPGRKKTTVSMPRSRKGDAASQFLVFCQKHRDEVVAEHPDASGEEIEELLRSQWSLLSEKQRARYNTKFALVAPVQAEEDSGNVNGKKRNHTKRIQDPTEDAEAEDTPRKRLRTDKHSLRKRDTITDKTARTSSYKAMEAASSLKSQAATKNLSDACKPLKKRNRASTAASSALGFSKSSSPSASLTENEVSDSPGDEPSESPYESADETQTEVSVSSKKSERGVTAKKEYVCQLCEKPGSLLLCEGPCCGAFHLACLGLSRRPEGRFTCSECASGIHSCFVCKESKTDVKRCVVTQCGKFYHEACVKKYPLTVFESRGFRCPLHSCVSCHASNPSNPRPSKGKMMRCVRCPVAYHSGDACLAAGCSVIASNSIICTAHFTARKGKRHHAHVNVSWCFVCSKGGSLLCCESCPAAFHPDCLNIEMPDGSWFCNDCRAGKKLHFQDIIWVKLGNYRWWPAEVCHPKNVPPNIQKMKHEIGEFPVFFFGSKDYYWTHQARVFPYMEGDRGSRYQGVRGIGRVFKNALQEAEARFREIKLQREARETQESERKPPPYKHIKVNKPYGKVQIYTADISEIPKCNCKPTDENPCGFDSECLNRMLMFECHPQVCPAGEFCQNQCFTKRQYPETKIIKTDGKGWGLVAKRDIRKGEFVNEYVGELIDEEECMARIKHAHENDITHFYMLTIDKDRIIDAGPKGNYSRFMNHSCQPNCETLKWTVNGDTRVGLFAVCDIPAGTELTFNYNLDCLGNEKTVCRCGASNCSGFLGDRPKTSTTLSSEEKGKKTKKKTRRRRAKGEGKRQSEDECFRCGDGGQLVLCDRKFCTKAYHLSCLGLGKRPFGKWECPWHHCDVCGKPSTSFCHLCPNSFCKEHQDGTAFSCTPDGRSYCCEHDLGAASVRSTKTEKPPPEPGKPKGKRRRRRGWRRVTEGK

Assay [1] has as its system cellular H3K36me2 level in thyroid carcinoma cell line CGTH-W-1 (NSD2 E1099K). The experiment in a line: H3K36me2 cellular ELISA assay in CGTH-W-1 line. Format: cell-based. Conditions: Homo sapiens, CGTH-W-1, 72 h, read-out: H3K36me2 ELISA in CGTH-W-1. The procedure: H3K36Me2 Cellular ELISA Assay in CGTH-W-1 Line
An ELISA (enzyme-linked immunosorbent assay) based assay was used to test the ability of candidate compound to reduce cellular H3K36me2 level in thyroid carcinoma cell line CGTH-W-1, carrying NSD2 E1099K gain of function mutation. CGTH-W-1 (DSMZ) cells are maintained in RPM11640 media with 10% FBS and 50 U/ml Penicillin-Streptomycin.
Cells were treated with tested compounds at the desired concentration for 72 hours.
Histone bound plates were washed and blocked with 5% BSA. […] The abundance of H3K36me2 and total H3 was measured by Chemiluminesce on a plate reader. Cell viability was monitored on a parallel seeded plate with CellTiter-Glo reagent (Promega #G7573).

The test system of assay [2] is cellular H3K36me2 level in multiple myeloma cell line KMS11 (t(4;14)+). The experiment in a line: H3K36me2 cellular ELISA assay in KMS11-Par line. Format: cell-based. The following applies: Homo sapiens, KMS-11; KMS11-Par line (t(4;14)+), 72 hours treatment, ELISA; read-out: H3K36me2 ELISA in KMS11-Par. In a few lines:
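After 72 h compound exposure, HCl-extracted histones from KMS11 (t(4;14)+) cells were probed by ELISA for H3K36me2 against total H3 with a chemiluminescence read-out. Cells were plated at 1,250/well in Opti-MEM plus B-27 and N2 the day before. A parallel CellTiter-Glo plate tracked viability.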
For orientation: In an ELISA, binding on a coated surface is turned into a signal by an enzyme label.

Take `CNC(=O)[C@@]1(N)CCCN(c2cnc(-c3cccc(F)c3)cc2Cn2cnc3c(N)ncnc32)C1` [Example 78, (R)-3-amino-1-(4-((6-amino-9H-purin-9-yl)methyl)-6-(3-fluorophenyl)pyridin-3-yl)-N-methylpiperidine-3-carboxamide]: the IC50 on NSD2 [1-1365] was 0.001 to 0.01 µM; in assay [1] it was 0.012 µM; in assay [2], 0.078 µM.
The like results for `Nc1ncnc2c1ncn2Cc1cc(-c2ccc(F)c(F)c2)ncc1N1CCCC(N)(C(=O)NC2CCOC2)C1` (stereo not drawn) [Example 85, 3-amino-1-(4-((6-amino-9H-purin-9-yl)methyl)-6-(3,4-difluorophenyl)pyridin-3-yl)-N-(tetrahydrofuran-3-yl)piperidine-3-carboxamide] were, in that order, 0.01 to 1 µM, 2.08 µM and 6.49 µM.
The like results for `Nc1ncnc2c1ncn2Cc1cc(-c2ccc(F)c(F)c2)ncc1N1CCCC(N)(C(=O)N2CCCCC2)C1` (stereo not drawn) [Example 86, (3-amino-1-(4-((6-amino-9H-purin-9-yl)methyl)-6-(3,4-difluorophenyl)pyridin-3-yl)piperidin-3-yl)(piperidin-1-yl)methanone] were, in that order, 0.01 to 1 µM, 8.69 µM and 33.3 µM.
The corresponding values for `CC1CCCCN1C(=O)C1(N)CCCN(c2cnc(-c3ccc(F)c(F)c3)cc2Cn2cnc3c(N)ncnc32)C1` (stereo not drawn) [Example 87, (3-amino-1-(4-((6-amino-9H-purin-9-yl)methyl)-6-(3,4-difluorophenyl)pyridin-3-yl)piperidin-3-yl)(2-methylpiperidin-1-yl)methanone] are 0.01 to 1 µM, 1.6 µM and 6.42 µM.
Consider `CC(C)C(C)C(=O)C1(N)CCCN(c2cnc(-c3ccc(F)c(F)c3)cc2Cn2cnc3c(N)ncnc32)C1` (stereo not drawn) [Example 89, 1-(3-amino-1-(4-((6-amino-9H-purin-9-yl)methyl)-6-(3,4-difluorophenyl)pyridin-3-yl)piperidin-3-yl)-2,3-dimethylbutan-1-one], for which the IC50 is 0.01 to 1 µM on NSD2 [1-1365], 0.245 µM in assay [1] and 0.684 µM in assay [2].
The corresponding values for `COc1ccc(-c2cc(Cn3cnc4c(N)ncnc43)c(N3CCC[C@](N)([C@@H](C)O)C3)cn2)cc1F` [Example 90, (R)-1-((R)-3-amino-1-(4-((6-amino-9H-purin-9-yl)methyl)-6-(3-fluoro-4-methoxyphenyl)pyridin-3-yl)piperidin-3-yl)ethan-1-ol] are 0.001 to 0.01 µM, 0.239 µM and 0.432 µM.
The like results for `Nc1ncnc2c1ncn2Cc1cc(-c2ccc(F)c(F)c2)ncc1N1CCC[C@](N)([C@H](F)c2ccccn2)C1` [Example 91, 9-((5-((R)-3-amino-3-((S)-fluoro(pyridin-2-yl)methyl)piperidin-1-yl)-2-(3,4-difluorophenyl)pyridin-4-yl)methyl)-9H-purin-6-amine] were, in that order, 0.001 to 0.01 µM, 0.121 µM and 0.89 µM.
The corresponding values for `COc1ccc(-c2cc(Cn3cnc4c(N)ncnc43)c(N3CCC[C@](N)([C@H](C)O)C3)cn2)cc1F` [Example 92, (S)-1-((R)-3-amino-1-(4-((6-amino-9H-purin-9-yl)methyl)-6-(3-fluoro-4-methoxyphenyl)pyridin-3-yl)piperidin-3-yl)ethan-1-ol] are 0.001 to 0.01 µM, 2.11 µM and 4.89 µM.
In the case of `CC(C)[C@H](O)[C@@]1(N)CCCN(c2cnc(-c3ccc(F)c(F)c3)cc2Cn2cnc3c(N)ncnc32)C1` [Example 98, (S)-1-((R)-3-amino-1-(4-((6-amino-9H-purin-9-yl)methyl)-6-(3,4-difluorophenyl)pyridin-3-yl)piperidin-3-yl)-2-methylpropan-1-ol], the IC50 at NSD2 [1-1365] is 0.01 to 1 µM; in assay [1], 1.5 µM; in assay [2], 6.26 µM.
As for `CC[C@H](C)C(=O)[C@@]1(N)CCCN(c2cnc(-c3ccc(F)c(F)c3)cc2Cn2cnc3c(N)ncnc32)C1` [Example 101, (S)-1-((R)-3-amino-1-(4-((6-amino-9H-purin-9-yl)methyl)-6-(3,4-difluorophenyl)pyridin-3-yl)piperidin-3-yl)-2-methylbutan-1-one], the figures for the IC50 (at NSD2 [1-1365]; in assay [1]; in assay [2]) were 0.001 to 0.01 µM, 0.04 µM and 0.034 µM, respectively.
The corresponding values for `CC[C@@H](C)C(=O)[C@@]1(N)CCCN(c2cnc(-c3ccc(F)c(F)c3)cc2Cn2cnc3c(N)ncnc32)C1` [Example 102, (R)-1-((R)-3-amino-1-(4-((6-amino-9H-purin-9-yl)methyl)-6-(3,4-difluorophenyl)pyridin-3-yl)piperidin-3-yl)-2-methylbutan-1-one] are 0.01 to 1 µM, 0.06 µM and 0.252 µM.
The like results for `CC(C(=O)C1(N)CCCN(c2cnc(-c3ccc(F)c(F)c3)cc2Cn2cnc3c(N)ncnc32)C1)C1CC1` (stereo not drawn) [Example 103, 1-(3-amino-1-(4-((6-amino-9H-purin-9-yl)methyl)-6-(3,4-difluorophenyl)pyridin-3-yl)piperidin-3-yl)-2-cyclopropylpropan-1-one] were, in that order, 0.01 to 1 µM, 0.138 µM and 0.379 µM.
Consider `CC(C)C(=O)[C@@]1(N)CCCN(c2cnc(-c3ccc(F)c(F)c3)cc2Cn2cnc3c(N)ncnc32)C1` [Example 104, (R)-1-(3-amino-1-(4-((6-amino-9H-purin-9-yl)methyl)-6-(3,4-difluorophenyl)pyridin-3-yl)piperidin-3-yl)-2-methylpropan-1-one], for which the IC50 at NSD2 [1-1365] was 0.01 to 1 µM; in assay [1], 0.026 µM; in assay [2], 0.06 µM.
As for `Nc1ncnc2c1ncn2Cc1cc(-c2ccc(F)c(F)c2)ncc1N1CCCC(N)(C(=O)C2CCC2)C1` (stereo not drawn) [Example 105, (3-amino-1-(4-((6-amino-9H-purin-9-yl)methyl)-6-(3,4-difluorophenyl)pyridin-3-yl)piperidin-3-yl)(cyclobutyl)methanone], the figures for the IC50 (on NSD2 [1-1365]; in assay [1]; in assay [2]) were 0.01 to 1 µM, 0.067 µM and 0.14 µM, respectively.
The like results for `COC1CCC(C(=O)C2(N)CCCN(c3cnc(-c4ccc(F)c(F)c4)cc3Cn3cnc4c(N)ncnc43)C2)C1` (stereo not drawn) [Example 106, (3-amino-1-(4-((6-amino-9H-purin-9-yl)methyl)-6-(3,4-difluorophenyl)pyridin-3-yl)piperidin-3-yl)(3-methoxycyclopentyl)methanone] were, in that order, 0.01 to 1 µM, 0.501 µM and 1.43 µM.
The corresponding values for `CC1(C(=O)C2(N)CCCN(c3cnc(-c4ccc(F)c(F)c4)cc3Cn3cnc4c(N)ncnc43)C2)CC1` (stereo not drawn) [Example 107, (3-amino-1-(4-((6-amino-9H-purin-9-yl)methyl)-6-(3,4-difluorophenyl)pyridin-3-yl)piperidin-3-yl)(1-methylcyclopropyl)methanone] are 0.01 to 1 µM, 0.446 µM and 3.02 µM.
The corresponding values for `Nc1ncnc2c1ncn2Cc1cc(-c2ccc(F)c(F)c2)ncc1N1CCCC(N)(C(=O)C2CCOCC2)C1` (stereo not drawn) [Example 108, (3-amino-1-(4-((6-amino-9H-purin-9-yl)methyl)-6-(3,4-difluorophenyl)pyridin-3-yl)piperidin-3-yl)(tetrahydro-2H-pyran-4-yl)methanone] are 0.01 to 1 µM, 0.772 µM and 1.96 µM.
For `CC(C)(C)C(=O)[C@@]1(N)CCCN(c2cnc(-c3ccc(F)c(F)c3)cc2Cn2cnc3c(N)ncnc32)C1` [Example 109, (R)-1-(3-amino-1-(4-((6-amino-9H-purin-9-yl)methyl)-6-(3,4-difluorophenyl)pyridin-3-yl)piperidin-3-yl)-2,2-dimethylpropan-1-one], the IC50 at NSD2 [1-1365] is 0.01 to 1 µM; in assay [1], 2.09 µM; in assay [2], 2.73 µM.
Turning to `Cn1ccc(C(=O)C2(N)CCCN(c3cnc(-c4ccc(F)c(F)c4)cc3Cn3cnc4c(N)ncnc43)C2)n1` (stereo not drawn) [Example 110, (3-amino-1-(4-((6-amino-9H-purin-9-yl)methyl)-6-(3,4-difluorophenyl)pyridin-3-yl)piperidin-3-yl)(1-methyl-1H-pyrazol-3-yl)methanone], the IC50 at NSD2 [1-1365] was 0.01 to 1 µM; in assay [1], 1.36 µM; in assay [2], 6.34 µM.
The corresponding values for `Nc1ncnc2c1ncn2Cc1cc(-c2ccc(F)c(F)c2)ncc1N1CCC[C@](N)([C@@H](O)C(F)F)C1` [Example 113, (R)-1-((R)-3-amino-1-(4-((6-amino-9H-purin-9-yl)methyl)-6-(3,4-difluorophenyl)pyridin-3-yl)piperidin-3-yl)-2,2-difluoroethan-1-ol] are 0.01 to 1 µM, 0.145 µM and 0.753 µM.

The values are drawn from US11420970B1 (NOVARTIS AG, priority 2019, dated 2022).
